Like-named read-outs stand apart in the source and are kept apart here.
Experiments:
Type in all cases: biochemical
papain = target: T1, papain (Carica papaya, UniProt P00784); assay: Thiol protease inhibitory activity, papain (P-3125, Sigma)
T1 sequence (P00784 134-345): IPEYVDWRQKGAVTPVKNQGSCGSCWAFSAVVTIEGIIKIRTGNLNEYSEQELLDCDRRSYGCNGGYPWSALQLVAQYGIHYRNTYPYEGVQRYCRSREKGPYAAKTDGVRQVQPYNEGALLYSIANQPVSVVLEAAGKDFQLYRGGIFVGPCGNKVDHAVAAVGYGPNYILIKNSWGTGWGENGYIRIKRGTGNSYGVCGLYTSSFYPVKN
Procedure: (§1) Inhibitory activity against papain (P-3125, Sigma) and cathepsin B (C-6286, Sigma) was assayed according to the method described in a literature [Biochemical Journal, 201, 189 (1982)]. Cathepsin L was purified from rat kidney according to the method in a literature [Journal of Biochemistry, 100, 35 (1986)], and the inhibitory activity against it was assayed in the same manner as described in the above literature for cathepsin B. Furthermore, m-calpain was purified from rat brain according to a known method [Journal of Biological Chemistry, 254, p. 3210 (1984)] and the inhibitory activity against it was assayed by a method described in a literature [Journal of Biological Chemistry, 259, 12489 (1984)]. It is evident from Tables 3 and 4 that the compounds of the present invention have a potent inhibitory activity against thiol proteases such as papain, cathepsin B, cathepsin L or m-calpain.

m-calpain = target: T2, m-calpain (Rattus norvegicus, UniProt Q07009); assay: Thiol protease inhibitory activity, m-calpain purified from rat brain; conditions: Table 3
T2 construct: m-calpain was purified from rat brain; from tissue; host or cells: rat brain
T2 sequence (Q07009 20-700 limits assumed): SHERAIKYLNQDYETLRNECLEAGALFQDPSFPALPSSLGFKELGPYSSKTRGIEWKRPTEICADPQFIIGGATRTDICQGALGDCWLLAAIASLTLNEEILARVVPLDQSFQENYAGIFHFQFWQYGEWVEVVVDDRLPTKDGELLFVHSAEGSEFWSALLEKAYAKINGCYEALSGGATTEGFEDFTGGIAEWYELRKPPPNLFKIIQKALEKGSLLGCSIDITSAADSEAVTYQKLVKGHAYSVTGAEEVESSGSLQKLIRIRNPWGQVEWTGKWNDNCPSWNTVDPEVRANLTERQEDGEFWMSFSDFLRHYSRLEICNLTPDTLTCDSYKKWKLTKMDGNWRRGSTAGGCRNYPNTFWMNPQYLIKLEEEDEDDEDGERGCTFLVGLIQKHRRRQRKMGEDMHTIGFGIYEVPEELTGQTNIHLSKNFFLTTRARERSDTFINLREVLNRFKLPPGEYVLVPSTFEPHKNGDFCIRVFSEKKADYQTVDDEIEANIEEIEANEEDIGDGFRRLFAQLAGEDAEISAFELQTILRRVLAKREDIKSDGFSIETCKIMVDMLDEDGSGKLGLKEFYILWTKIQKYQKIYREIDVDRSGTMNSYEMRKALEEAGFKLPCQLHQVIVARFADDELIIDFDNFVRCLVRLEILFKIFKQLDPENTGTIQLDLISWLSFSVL
T2 sequence (Q64537 1-270 partner): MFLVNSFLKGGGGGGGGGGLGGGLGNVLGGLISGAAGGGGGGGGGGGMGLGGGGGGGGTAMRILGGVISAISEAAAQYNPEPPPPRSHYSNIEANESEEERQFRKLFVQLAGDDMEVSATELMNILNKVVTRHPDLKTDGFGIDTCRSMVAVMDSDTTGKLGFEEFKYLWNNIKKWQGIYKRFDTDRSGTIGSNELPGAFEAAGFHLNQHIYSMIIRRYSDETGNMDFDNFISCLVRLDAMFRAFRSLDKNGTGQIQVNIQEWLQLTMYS
Procedure: as §1

cathepsin L = target: T3, cathepsin L (Rattus norvegicus, UniProt P07154); assay: Thiol protease inhibitory activity, cathepsin L purified from rat kidney; conditions: Table 3
T3 construct: Cathepsin L was purified from rat kidney; from tissue; host or cells: rat kidney
T3 sequence (P07154 114-334): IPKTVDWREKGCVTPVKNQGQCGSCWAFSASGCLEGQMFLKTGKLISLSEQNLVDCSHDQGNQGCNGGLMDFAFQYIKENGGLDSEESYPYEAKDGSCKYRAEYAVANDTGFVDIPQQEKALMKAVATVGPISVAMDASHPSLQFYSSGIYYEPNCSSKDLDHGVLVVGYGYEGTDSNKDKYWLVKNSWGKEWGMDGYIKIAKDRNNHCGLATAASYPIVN
Procedure: as §1

cathepsin B = target: T4, cathepsin B (Bos taurus, UniProt P07688); assay: Thiol protease inhibitory activity, cathepsin B (C-6286, Sigma); conditions: Table 3
T4 construct: purchased Sigma C-6286
Procedure: as §1

CCCC[C@H](NC(=O)[C@H](CC(C)C)NC(=O)COc1ccccc1C)C(=O)CSCc1ccco1 [44 (No. 96), (s)-1-furfurylthio-3-[(s)-4-methyl-2-(2-methylphenoxyacetylamino)valerylamino]-2-heptanone]
IC50 (papain; Table 3, read-out: IC50 papain): 0.88 µM | IC50 (m-calpain): 22 µM | IC50 (cathepsin L): 0.06 µM | IC50 (cathepsin B): 0.17 µM

CCCC[C@H](NC(=O)[C@H](CC(C)C)NC(=O)COc1cccc(F)c1)C(=O)CSCc1ccco1 [37 (No. 86), (s)-3-[(s)-2-(3-fluorophenoxyacetylamino)-4-methylvalerylamino]-1-furfurylthio-2-heptanone]
IC50 (papain; Table 3, read-out: IC50 papain): 1.3 µM | IC50 (m-calpain): 15 µM | IC50 (cathepsin L): 0.45 µM | IC50 (cathepsin B): 0.7 µM

CCCC[C@H](NC(=O)[C@H](CC(C)C)NC(=O)Cc1cccc2ccccc12)C(=O)CSCc1ccco1 [33 (No. 76), (s)-1-furfurylthio-3-[(s)-4-methyl-2-(1-naphtylacetylamino)valerylamino]-2-heptanone]
IC50 (papain; Table 3, read-out: IC50 papain): 0.7 µM | IC50 (m-calpain): 6.4 µM | IC50 (cathepsin L): 0.27 µM | IC50 (cathepsin B): 1.2 µM

CCCC[C@H](NC(=O)[C@H](CC(C)C)NC(=O)OCc1ccccc1F)C(=O)CSCc1ccco1 [23 (No. 49), (s)-3-[(s)-2-(2-fluorobenzyloxycarbonylamino)-4-methylvalerylamino]-1-furfurylthio-2-heptanone]
IC50 (papain; Table 3, read-out: IC50 papain): 22 µM | IC50 (m-calpain): 6.4 µM | IC50 (cathepsin L): 1.1 µM | IC50 (cathepsin B): 3.7 µM

CC(C)C[C@H](NC(=O)COc1ccccc1)C(=O)N[C@@H](CCc1ccccc1)C(=O)CSCc1ccco1 [206 (No. 543), (s)-1-furfurylthio-3-((s)-4-methyl-2-phenoxyacetylaminovalerylamino)-5-phenyl-2-pentanone]
IC50 (papain): 6 µM | IC50 (m-calpain): 15 µM | IC50 (cathepsin L): 0.62 µM | IC50 (cathepsin B): 0.82 µM

CCCC[C@H](NC(=O)[C@H](CC(C)C)NC(=O)COc1ccc(Cl)cc1)C(=O)CSCc1ccco1 [40 (No. 90), (s)-3-[(s)-2-(4-chlorophenoxyacetylamino)-4-methylvalerylamino]-1-furfurylthio-2-heptanone]
IC50 (papain; Table 3, read-out: IC50 papain): 2.1 µM | IC50 (m-calpain): 8.4 µM | IC50 (cathepsin L): 0.85 µM | IC50 (cathepsin B): 0.27 µM

CCCC[C@H](NC(=O)[C@H](CC(C)C)NC(=O)COc1ccc(Cl)cc1Cl)C(=O)CSCc1ccco1 [42 (No. 92), (s)-3-[(s)-2-(2,4-dichlorophenoxyacetylamino)-4-methylvalerylamino]-1-furfurylthio-2-heptanone]
IC50 (papain; Table 3, read-out: IC50 papain): 4.5 µM | IC50 (m-calpain): 23 µM | IC50 (cathepsin L): 0.74 µM | IC50 (cathepsin B): 1.9 µM

CCCC[C@H](NC(=O)[C@H](CC(C)C)NC(=O)COc1ccc(Cl)cc1C)C(=O)CSCc1ccco1 [46 (No. 100), (s)-3-[(s)-2-(4-chloro-2-methylphenoxyacetylamino)-4-methylvalerylamino]-1-furfurylthio-2-heptanone]
IC50 (papain; Table 3, read-out: IC50 papain): 0.39 µM | IC50 (m-calpain): 16 µM | IC50 (cathepsin L): 0.1 µM | IC50 (cathepsin B): 0.4 µM

CSCC(=O)[C@H](CCc1ccccc1)NC(=O)[C@H](CC(C)C)NC(=O)OCc1ccccc1 [202 (No. 534), (s)-3-((s)-2-benzyloxycarbonylamino-4-methylvalerylamino)-1-methylthio-5-phenyl-2-pentanone]
IC50 (papain; Table 3, read-out: IC50 papain): > 100 µM | IC50 (m-calpain): 13 µM | IC50 (cathepsin L): 0.39 µM | IC50 (cathepsin B): 0.25 µM

CCCC[C@H](NC(=O)[C@H](CC(C)C)NC(=O)c1cccc2ccccc12)C(=O)CSCc1ccco1 [83 (No. 161), (s)-1-furfurylthio-3-[(s)-4-methyl-2-(1-naphtoylamino)valerylamino]-2-heptanone]
IC50 (papain; Table 3, read-out: IC50 papain): 47 µM | IC50 (m-calpain): 12 µM | IC50 (cathepsin L): 0.4 µM | IC50 (cathepsin B): 5 µM

CC(C)C[C@H](NC(=O)COc1ccccc1)C(=O)N[C@@H](Cc1ccc(Cl)cc1)C(=O)CSCc1ccco1 [197 (No. 511), (s)-4-(4-chlorophenyl)-1-furfurylthio-3-((s)-4-methyl-2-phenoxyacetylaminovalerylamino)-2-butanone]
IC50 (papain): 13 µM | IC50 (m-calpain): 7.8 µM | IC50 (cathepsin L): 1.7 µM | IC50 (cathepsin B): 6 µM

CCCC[C@H](NC(=O)[C@H](CC(C)C)NC(=O)OCc1ccccn1)C(=O)CSCc1ccco1 [28 (No. 59), (s)-1-furfurylthio-3-[(s)-4-methyl-2-(2-pyridylmethoxycarbonylamino)valerylamino]-2-heptanone]
IC50 (papain; Table 3, read-out: IC50 papain): 3.4 µM | IC50 (m-calpain): 11 µM | IC50 (cathepsin L): 15 µM | IC50 (cathepsin B): 2.1 µM

CCCC[C@H](NC(=O)[C@H](CC(C)C)NC(=O)COc1cccc(C)c1)C(=O)CSCc1ccco1 [45 (No. 97), (s)-1-furfurylthio-3-[(s)-4-methyl-2-(3-methylphenoxyacetylamino)valerylamino]-2-heptanone]
IC50 (papain; Table 3, read-out: IC50 papain): 0.51 µM | IC50 (m-calpain): 11 µM | IC50 (cathepsin L): 0.19 µM | IC50 (cathepsin B): 0.38 µM

CCCC[C@H](NC(=O)[C@H](CC(C)C)NC(=O)COc1c(Cl)cc(Cl)cc1Cl)C(=O)CSCc1ccco1 [43 (No. 94), (s)-1-furfurylthio-3-[(s)-4-methyl-2-(2,4,6-trichlorophenoxyacetylamino)valerylamino]-2-heptanone]
IC50 (papain; Table 3, read-out: IC50 papain): 0.37 µM | IC50 (m-calpain): 5.8 µM | IC50 (cathepsin L): 0.038 µM | IC50 (cathepsin B): 0.057 µM

CC(C)C[C@H](NC(=O)OCc1ccccc1)C(=O)N[C@@H](Cc1ccccc1)C(=O)CN(C)Cc1ccco1 [191 (No. 479), (s)-3-((s)-2-benzyloxycarbonylamino-4-methylvalerylamino)-1-(N-methylfurfurylamino)-4-phenyl-2-butanone]
IC50 (papain; Table 3, read-out: IC50 papain): > 100 µM | IC50 (m-calpain): 24 µM | IC50 (cathepsin L): 9.3 µM | IC50 (cathepsin B): 3.5 µM

CC(C)C[C@H](NC(=O)COc1ccccc1Cl)C(=O)N[C@@H](Cc1ccccc1)C(=O)CSCc1ccco1 [167 (No. 354), (s)-3-[(s)-2-(2-chlorophenoxyacetylamino)-4-methylvalerylamino]-1-furfurylthio-4-phenyl-2-butanone]
IC50 (papain; Table 3, read-out: IC50 papain): > 100 µM | IC50 (m-calpain): 20 µM | IC50 (cathepsin L): 1.4 µM | IC50 (cathepsin B): 30 µM

CCCC[C@H](NC(=O)[C@H](CC(C)C)NC(=O)OCc1ccccc1)C(=O)CSCc1ccco1 [22 (No. 48), (s)-3-((s)-2-benzyloxycarbonylamino-4-methylvalerylamino)-1-furfurylthio-2-heptanone]
IC50 (papain; Table 3, read-out: IC50 papain): 1.1 µM | IC50 (m-calpain): 11 µM | IC50 (cathepsin L): 1.3 µM | IC50 (cathepsin B): 0.98 µM

CC(C)C[C@H](NC(=O)OCc1ccccc1)C(=O)N[C@@H](CC1CCCCC1)C(=O)CSCc1ccco1 [109 (No. 238), (s)-3-((s)-2-benzyloxycarbonylamino-4-methylvalerylamino)-4-cyclohexyl-1-furfurylthio-2-butanone]
IC50 (papain; Table 3, read-out: IC50 papain): 4.2 µM | IC50 (m-calpain): 13 µM | IC50 (cathepsin L): 1.2 µM | IC50 (cathepsin B): 1.1 µM

CCCC[C@H](NC(=O)[C@H](CC(C)C)NC(=O)Cc1ccc(F)cc1)C(=O)CSCc1ccco1 [31 (No. 69), (s)-3-[(s)-2-(4-fluorophenylacetylamino)-4-methylvalerylamino]-1-furfurylthio-2-heptanone]
IC50 (papain; Table 3, read-out: IC50 papain): 1.4 µM | IC50 (m-calpain): 22 µM | IC50 (cathepsin L): 0.63 µM | IC50 (cathepsin B): 0.55 µM

CCCC[C@H](NC(=O)[C@H](CC(C)C)NC(=O)c1ccc2ccccc2c1)C(=O)CSCc1ccco1 [82 (No. 162), (s)-1-furfurylthio-3-[(s)-4-methyl-2-(2-naphtoylamino)valerylamino]-2-heptanone]
IC50 (papain; Table 3, read-out: IC50 papain): 34 µM | IC50 (m-calpain): 20 µM | IC50 (cathepsin L): 0.32 µM | IC50 (cathepsin B): 2.7 µM

Reference: patent US5639783A, “Ketone derivatives” (Mitsubishi Chemical Corporation, priority 1991, dated 1997)
